According to US6395932B1, “1,2-diphenyl-2-propen-1-one derivatives” (Santen Pharmaceutical Co., Ltd., priority 1999, dated 2002):

Each compound was assayed on bovine cultured trabecular meshwork cells (assay: Effects on morphology of bovine cultured trabecular meshwork cells (image analysis of cell area)). Settings: Bos taurus, 3 h, drug treatment for three hours at 37° C., rate of change in area by image analysis, read-out: EC50 (concentration required to reduce the cell area of the trabecular meshwork cells by 50%).
Type: cell-based
From the text: In order to study utility of the present compounds in glaucoma, effects of the present compounds on morphology of trabecular meshwork cells were investigated.
The possibility has been reported that drugs having effects of increasing aqueous humor outflow can be found by evaluating effects of drugs on morphology of cultured trabecular meshwork cells (Invest. Ophthalmol. Vis. Sci., 33, 2631-2640 (1992)). Accordingly, effects of the present compounds on morphology of bovine cultured trabecular meshwork cells were studied in the similar manner to the method described in the above-mentioned literature.
Morphological changes in bovine cultured trabecular meshwork cells by adding the present compounds were quantitatively evaluated by image analysis.
Bovine trabecular meshwork cells (passage number 2 to 5) cultured in a basal medium for mammalian cell culture D-MEM (Dulbecco's Modified Eagle Medium, manufactured by Gibco Co., Ltd.) containing fetal bovine serum (10%), amphotericin B (2.5 μg/ml) and gentamicin (50 μg/ml) were treated with a trypsin-EDTA solution (0.05% trypsin, 0.53 mM EDTA·4Na) 24 hours before the later drug treatment and seeded in a 24-well plate (10^4 cells/well). Twelve hours before the later drug treatment, the cells were washed with phosphate-buffered physiological saline, and then the medium was replaced by D-MEM containing amphotericin B (2.5 μg/ml) and gentamicin (50 μg/ml) (hereinafter referred to as “medium A”).
A test compound was dissolved in dimethyl sulfoxide (DMSO), and the medium A was added to the solution, followed by sterilizing the solution by filtration. The medium A was further added to the solution to dilute it at a prescribed concentration. […]
Photographed cell images were incorporated from the photographs into an image analysis system with a CCD camera (manufactured by HAMAMATU Co., Ltd.). Outlines of the incorporated cell images were traced, and areas were measured. […]
`C=C(C(=O)c1ccc(/C=C/CN(C)C)cc1)c1ccccc1` [Compound No. 4-1, 1-[4-[(E)-3-(Dimethylamino)-1-propenyl]phenyl]-2-phenyl-2-propen-1-one] gave an EC50 of 580 nM. With `C=C(C(=O)c1ccc(CCCN(C)C)cc1)c1ccccc1` [Compound No. 4-2, 1-[4-[3-(Dimethylamino)propyl]phenyl]-2-phenyl-2-propen-1-one] the EC50 was 840 nM. Work on `C=C(CC)C(=O)c1ccc(OCC(=O)O)c(Cl)c1Cl` [Ethacrynic acid, reference compound] yielded an EC50 of 62000 nM.
